Source: patent US6228889A, “Methods for treatment of conditions associated with lactosylceramide” (priority 1999, dated 2001)

Legend:
restenosis = conditions: patients, reported in literature; cited from earlier work
Mac-1 (CD11b/CD18) = conditions: pmns, 20 min, 0.1 µM
[1] = system: neutrophil adhesion to Eahy 926 cells; experiment: Confocal microscopic study of adhesion of human neutrophils to Eahy 926 endothelial cells; format: cell-based; conditions: LacCer 5 μM, 4 hours
NADPH oxidase = conditions: eahy 926 cell membranes, 5 min, 5 µM
PMNs [2] = experiment: ROM generation by PMNs (DCFH-DA); format: cell-based, human; conditions: DCFH-DA, 45 minutes
[3] = system: PMN adhesion to unstimulated endothelial cells; experiment: PMN-endothelial adhesion assay; format: cell-based, human; conditions: PMNs incubated with LacCer, washed
Protocol: 12. PMN-Endothelial Adhesion Assay. PMNs were labeled fluorescently by incubation with 5 μmol/L Calcein-AM (Molecular Probes) in calcium-free PBS for 20 minutes at 37° C., washed and resuspended in Hanks' balanced salt solution (Gibco) containing 0.2% bovine serum albumin (BSA). These PMNs were then treated with LacCer (or vehicle, 0.05% DMSO), washed 3 times with PBS and then plated on the unstimulated ec monolayers, which had been grown to confluence in 24-well plates. The PMNs (600 μL of 2×10^6 /mL/well) then were incubated with the ecs for 30 minutes at 37° C. Non-adherent PMNs were then removed by gentle washing 3 times with PBS. The residual adherent PMNs (and ecs) were then lysed using 4mmol/L Zwittergent Calbiochem, La Jolla, Calif.) and the plates read on a fluorescence plate reader (Millipore) at EX 480 nm/EM 530 nm. The number of adherent PMNs were expressed as number of PMN/mm^2 ec monolayer, based on the mean fluorescent intensity of each PMN, as determined from a standard curve. 13. Additional Methods. LacCer, ceramide and […] (all from Sigma) were prepared as described in examples below, and used as putative agonists for the stimulation of PMN adhesion molecule expression, assayed by FACScan. […]

NADH oxidase = NADH oxidase assay in membrane preparations of Eahy 926 cells; format: biochemical, human; conditions: 5 μM LacCer
NF-kB = NF-kB DNA binding assay (gel mobility shift) in Eahy 926 cells; format: cell-based, human; conditions: 5 μM LacCer
VCAM-1 = VCAM-1 expression in Eahy 926; format: cell-based, human; conditions: Eahy 926, LacCer
p150,95 = experiment: Flowcytometric analysis of p150,95 expression on PMNs; format: cell-based, human; conditions: 20 minutes
Protocol: (§1) 10. Flowcytometric Analysis of the Expression of Adhesion Molecules on PMNs. Treated PMNs were rapidly cooled on ice, washed twice with cold washing buffer (PBS containing 0.1% BSA and 0.1% sodium azide), and then incubated with either monoclonal (m) anti-human (h) LFA-1 (CD11 a), m-anti-h Mac-1 (CD 11b), m-anti-h p150,95 (CD 11 c) or m-anti-h L-selectin (all from PharMingen., San Diego, Calif.), followed by FITC-conjugated m-anti-mouse IgG (American Qualex, San Clement, Calif.). The PMNs were gated by forward and side scattering for analysis by FACScan (Becton Dickinson, Cockeysville, Md.).

PMNs [4] = experiment: [3H] arachidonic acid release from labeled PMNs; format: cell-based, human; conditions: 100 nmol/L LacCer, 30 minutes at 37° C.
L-selectin = experiment: Flowcytometric analysis of L-selectin expression on PMNs; format: cell-based, human; conditions: 20 minutes
Protocol: as §1

CD11a/CD18 (LFA-1) = experiment: Flowcytometric analysis of LFA-1 expression on PMNs; format: cell-based, human; conditions: 20 minutes
Protocol: as §1

Eahy 926 cells = experiment: Superoxide production by intact Eahy 926 (lucigenin chemiluminescence); format: cell-based, human; conditions: 5 μM LacCer after 5 minutes, intact Eahy 926 cells
PMNs [5] = experiment: Superoxide generation in PMNs (lucigenin); format: cell-based, human; conditions: 100 nmol LacCer 20 minutes, no inhibitor, PMNs
P-selectin = P-selectin expression in Eahy 926; format: cell-based, human; conditions: Eahy 926, LacCer

CC(C)(Sc1cc(C(C)(C)C)c(O)c(C(C)(C)C)c1)Sc1cc(C(C)(C)C)c(O)c(C(C)(C)C)c1 [probucol]
restenosis after angioplasty (restenosis): reduce restenosis in some patients

lactosylceramide [LacCer]
maximum stimulation of Mac-1 level compared to control (Mac-1 (CD11b/CD18)): 2.5 fold
adhesion of neutrophils to the endothelial cell monolayer [1]: markedly stimulated
stimulation of NADPH oxidase activity versus non-stimulated cell membrane preparations (NADPH oxidase): about 3 fold
ROM stimulation in PMNs (PMNs [2]): positive, dose-dependent response
PMN adhesion to unstimulated ec monolayers [3]: increased
NADH oxidase activity in LacCer stimulated/non stimulated membrane preparations (NADH oxidase): remained unchanged
nuclear concentration of NF-kB (NF-kB): time dependent increase
expression of VCAM-1 (VCAM-1): did not stimulate measurable expression
level of p150,95 (p150,95; LacCer 200 nmol/L): decreased
level of p150,95 (p150,95; LacCer 50-100 nmol/L): increased
[3H] AA release from labeled PMNs (PMNs [4]): increased
maximal expression of ICAM-1 as compared to control (ICAM-1; eahy 926 cells, 6 h, 5 µM): 7 fold
stimulation of ICAM-1 expression by GSLs (ICAM-1; intact Eahy 926 cells, GSLs 10 μM, gangliosides up to 50 μM): specifically stimulated
level of L-selectin (L-selectin; LacCer higher concentrations): downregulated
level of L-selectin (L-selectin; LacCer lower concentrations): did not change
level of CD11a/CD18 (LFA-1) (CD11a/CD18 (LFA-1); LacCer higher concentrations): downregulated
level of CD11a/CD18 (LFA-1) (CD11a/CD18 (LFA-1); LacCer lower concentrations): did not change
maximum generation of O2- (Eahy 926 cells): 2.7 nmol/mni/mg protein
superoxide levels compared with controls (PMNs [5]): about two
expression of P-selectin (P-selectin): did not stimulate measurable expression
